Source: US20230183179A1, “NOVEL CELL METABOLISM MODULATING COMPOUNDS AND USES THEREOF” (CRESCENTA BIOSCIENCES, priority 2020, published 2023)

Tests used:
[1] = tested on: differentiated 3T3-L1 mouse adipocyte cells; test: Adipocyte glucose consumption in differentiated 3T3-L1 cells (colorimetric glucose assay of the medium); format: cell-based; settings: 3T3-L1, 24 h, compound 10 μM, loss of glucose from culture medium, mean fold change (compound/DMSO)
Experimental: Activity of compounds on adipocyte glucose consumption was tested in differentiated 3T3-L1 mouse adipocyte cells. 3T3-L1 preadipocytes (ATCC) were routinely cultured in a growth medium composed of DMEM high-glucose (Sigma), 10% FBS (Gibco), 10 U/ml penicillin and 10 μg/ml streptomycin (P/S; Gibco). To induce adipogenic differentiation, a confluent layer of 3T3-L1 cells were incubated with the growth medium containing 2 μM rosiglitazone, 1 μM dexamethasone, 500 μM IBMX, and 1 μg/ml insulin (Sigma). Forty-eight (48) hours later (on day 2) and on days 4 and 6, medium of the cells was replaced with fresh medium containing 1 μg/ml insulin. On days 8 and 10, the medium was refreshed with regular growth medium and addition of insulin was omitted. On day 11, medium of the cells were 10 replaced with fresh medium containing either the indicated compounds (10 μM) or the vehicle in which the compounds were dissolved (DMSO). The final concentration of DMSO was 0.1% (v/v). Growth medium containing 0.1% DMSO was incubated in culture wells containing no cells and used as control. 24 hours later, medium was harvested and subjected to centrifugation at 10,000 g for 5 min. Glucose concentration in the supernatants was determined using a 15 colorimetric assay (Glucose Assay Kit I, Eton Biosciences). Glucose consumption in compound and vehicle treated cells was measured as loss of glucose from the culture medium and represented as mean fold change (compound/DMSO)±standard deviation (SD).

[2] = target: T1, His6 tagged human recombinant FABP4 (Homo sapiens, UniProt P15090); test: FABP4 TR-FRET assay: displacement of fluorescent fatty acid BODIPY FL C12; settings: inhibition of BODIPY FL C12 binding to His6-FABP4; 1.2 μL of 1.085 mM compound in DMSO per well; triplicates, mean percent inhibition
T1 construct: purchased Cayman Chemicals 10009549
T1 sequence (P15090 whole entry): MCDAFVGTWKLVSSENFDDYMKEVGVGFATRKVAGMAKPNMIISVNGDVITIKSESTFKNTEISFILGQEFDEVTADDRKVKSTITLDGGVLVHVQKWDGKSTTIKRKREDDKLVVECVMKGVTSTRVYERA
Text: Activity of compounds with FABP4 was profiled using a Terbium (Tb) based time resolved fluorescence energy transfer (TR-FRET) assay. The assay measures the compound mediated displacement of the fluorescent fatty acid BODIPY FL C12 (Thermo Fisher; catalog number D3822) from His6 tagged human recombinant FABP4 (His6-FABP4; Cayman Chemicals, catalog number 10009549) via recording the energy transfer from TB donor molecule on anti-His6-tag antibody to acceptor BODIPY moiety. Briefly, compounds and BODIPY FL C12 were prepared at a concentration of 1.085 mM and 4.2 μM, respectively, in DMSO. 1.2 μL of each compound or DMSO (vehicle control) and 1.2 μL of BODIPY FL C12 were added into the wells of a 384-well black polypropylene plate. His6-FABP4 and Tb anti-His6 antibody were prepared in the assay buffer (25 mM Tris/HCl, pH 7.4, 0.4 mg/ml γ-globulins, 0.010% NP-40, 1 mM DTT) at a concentration of 83 nM and 49.6 nM, respectively. The protein and antibody solutions were then mixed at a ratio of 34:7 (v/v) and incubated on ice for 30 minutes. The assay was initiated by adding 41 μL of the resulting protein/antibody solution into the wells containing the compounds and BODIPY FL C12. The plate was centrifuged and incubated at room temperature for 10 min. The TR-FRET signals were recorded using an EnVision Multilabel plate reader (PerkinElmer; TB excitation 320 nm, BODIPY FL C12 emission 520 nm; TB emission 615 nm). Relative fluorescence ratio (520 nm*10,000/615 nm) were used to calculate the compound mediated inhibition of BODIPY C12 FL fatty acid binding to FABP4. The compounds were tested in triplicates and the results were represented as mean percent inhibition (compound*100/DMSO)±standard deviation (SD). Glucose consumption and FABP4 inhibition is shown below in Table 3 below. The compounds showing no inhibition of activity in the TR-FRET assay are marked as N.A. N.D. stands for “not determined”.

## O=C(O)C1CCCN1c1cc(-c2ccccc2)c2cc(Cl)ccc2n1 (stereo not shown) [1-(6-chloro-4-phenylquinolin-2-yl)pyrrolidine-2-carboxylic acid]
[1]
  fold induction at 10 µM: 1.08
[2]
  inhibition at 1085 µM (stock): 105%

## CCCCCCc1ccc2nc(-n3ccc(C(=O)O)c3)cc(-c3ccccc3)c2c1 [1-(6-hexyl-4-phenylquinolin-2-yl)-1H-pyrrole-3-carboxylic acid]
[1]
  fold induction at 10 µM: 1.09
[2]
  inhibition at 1085 µM (stock): < 0%

## CCCCCCc1ccc2nc(N3CCC(C)(C(=O)O)C3)cc(-c3ccccc3)c2c1 (stereo not shown) [1-(6-hexyl-4-phenylquinolin-2-yl)-3-methylpyrrolidine-3-carboxylic acid]
[1]
  fold induction at 10 µM: 1.36
[2]
  inhibition at 1085 µM (stock): 36.4%

## CCCCCCc1ccc2nc(N3CC(C(=O)O)CC3=O)cc(-c3ccccc3)c2c1 (stereo not shown) [1-(6-hexyl-4-phenylquinolin-2-yl)-5-oxopyrrolidine-3-carboxylic acid]
[1]
  fold induction at 10 µM: 1.11
[2]
  inhibition at 1085 µM (stock): 6.12%

## CCCCCCc1ccc2nc(N3CCCC(C(=O)O)C3)cc(-c3ccccc3)c2c1 (stereo not shown) [1-(6-hexyl-4-phenylquinolin-2-yl)piperidine-3-carboxylic acid]
[1]
  fold induction at 10 µM: 1.16
[2]
  inhibition at 1085 µM (stock): 88.3%

## CCCCCCc1ccc2nc(N3CCCC3C(=O)O)cc(-c3ccccc3)c2c1 (stereo not shown) [1-(6-hexyl-4-phenylquinolin-2-yl)pyrrolidine-2-carboxylic acid]
[1]
  fold induction at 10 µM: 1.09
[2]
  inhibition at 1085 µM (stock): 67.5%

## CCCCc1ccc2nc(N3CCCC(C(=O)O)C3)cc(-c3cccc(C#N)c3)c2c1 (stereo not shown) [1-[6-butyl-4-(3-cyanophenyl)quinolin-2-yl]piperidine-3-carboxylic acid]
[1]
  fold induction at 10 µM: 0.91
[2]
  inhibition at 1085 µM (stock): 24.3%

## CCCCCCc1ccc2nc(N3CCCC(C(=O)O)C3)cc(-c3cccnc3)c2c1 (stereo not shown) [1-[6-hexyl-4-(pyridin-3-yl)quinolin-2-yl]piperidine-3-carboxylic acid]
[1]
  fold induction at 10 µM: 1.09
[2]
  inhibition at 1085 µM (stock): 91.6%

## CCCc1ccc2nc(N(C)CC(=O)O)cc(-c3cccc(C#N)c3)c2c1 [2-([4-(3-cyanophenyl)-6-propylquinolin-2-yl](methyl)amino}acetic acid]
[1]
  fold induction at 10 µM: 1.31
[2]
  inhibition at 1085 µM (stock): 27.7%

## CCCc1ccc2nc(OCC(=O)O)cc(-c3cccc(C#N)c3)c2c1 [2-([4-(3-cyanophenyl)-6-propylquinolin-2-yl]oxy}acetic acid]
[1]
  fold induction at 10 µM: 1.06
[2]
  inhibition at 1085 µM (stock): 34.8%

## CCCCCCc1ccc2nc(N(C)CC(=O)O)cc(Oc3ccc(F)cc3)c2c1 [2-([4-(4-fluorophenoxy)-6-hexylquinolin-2-yl](methyl)amino}acetic acid]
[1]
  fold induction at 10 µM: 1.27
[2]
  inhibition at 1085 µM (stock): 65.2%

## CCCCCCCc1ccc2nc(N(C)CC(=O)O)cc(-c3ccc(F)cc3)c2c1 [2-([4-(4-fluorophenyl)-6-heptylquinolin-2-yl](methyl)amino}acetic acid]
[1]
  fold induction at 10 µM: 1.25
[2]
  inhibition at 1085 µM (stock): 75.6%

## CCCCCCc1ccc2nc(N(C)CC(=O)O)c(C)c(-c3ccc(F)cc3)c2c1 [2-([4-(4-fluorophenyl)-6-hexyl-3-methylquinolin-2-yl](methyl)amino}acetic acid]
[1]
  fold induction at 10 µM: 1.19
[2]
  inhibition at 1085 µM (stock): 111%

## CN(CC(=O)O)c1cc(-c2ccccc2)c2cc(CCc3nc4ccccc4o3)ccc2n1 [2-({6-[2-(1,3-benzoxazol-2-yl)ethyl]-4-phenylquinolin-2-yl}(methyl)amino)acetic acid]
[1]
  fold induction at 10 µM: 1.23
[2]
  inhibition at 1085 µM (stock): 27.4%

## CN(CC(=O)O)c1cc(-c2ccccc2)c2cc(CCc3ccccc3Cl)ccc2n1 [2-({6-[2-(2-chlorophenyl)ethyl]-4-phenylquinolin-2-yl}(methyl)amino)acetic acid]
[1]
  fold induction at 10 µM: 1.26
[2]
  inhibition at 1085 µM (stock): 30.1%

## COc1ccccc1CCc1ccc2nc(N(C)CC(=O)O)cc(-c3ccccc3)c2c1 [2-({6-[2-(2-methoxyphenyl)ethyl]-4-phenylquinolin-2-yl}(methyl)amino)acetic acid]
[1]
  fold induction at 10 µM: 1.11
[2]
  inhibition at 1085 µM (stock): 65.1%

## CN(CC(=O)O)c1cc(-c2ccccc2)c2cc(CCc3cccc(Cl)c3)ccc2n1 [2-({6-[2-(3-chlorophenyl)ethyl]-4-phenylquinolin-2-yl}(methyl)amino)acetic acid]
[1]
  fold induction at 10 µM: 1.47
[2]
  inhibition at 1085 µM (stock): 57.1%

## COc1cccc(CCc2ccc3nc(N(C)CC(=O)O)cc(-c4ccccc4)c3c2)c1 [2-({6-[2-(3-methoxyphenyl)ethyl]-4-phenylquinolin-2-yl}(methyl)amino)acetic acid]
[1]
  fold induction at 10 µM: 1.31
[2]
  inhibition at 1085 µM (stock): 93.2%

## CN(CC(=O)O)c1cc(-c2ccccc2)c2cc(CCc3ccc(Cl)cc3)ccc2n1 [2-({6-[2-(4-chlorophenyl)ethyl]-4-phenylquinolin-2-yl}(methyl)amino)acetic acid]
[1]
  fold induction at 10 µM: 1.43
[2]
  inhibition at 1085 µM (stock): 56.4%

## COc1ccc(CCc2ccc3nc(N(C)CC(=O)O)cc(-c4ccccc4)c3c2)cc1 [2-({6-[2-(4-methoxyphenyl)ethyl]-4-phenylquinolin-2-yl}(methyl)amino)acetic acid]
[1]
  fold induction at 10 µM: 1.26
[2]
  inhibition at 1085 µM (stock): 15%

## CCCc1ccc2nc(OCC(=O)O)cc(-c3ccccc3)c2c1 [2-[(4-phenyl-6-propylquinolin-2-yl)oxy]acetic acid]
[1]
  fold induction at 10 µM: 0.99
[2]
  inhibition at 1085 µM (stock): 33.8%

## CN(CC(=O)O)c1cc(-c2ccccc2)c2cc(Br)ccc2n1 [2-[(6-bromo-4-phenylquinolin-2-yl)(methyl)amino]acetic acid]
[1]
  fold induction at 10 µM: 1.26
[2]
  inhibition at 1085 µM (stock): 109%

## O=C(O)COc1cc(-c2ccccc2)c2cc(Br)ccc2n1 [2-[(6-bromo-4-phenylquinolin-2-yl)oxy]acetic acid]
[1]
  fold induction at 10 µM: 1.01
[2]
  inhibition at 1085 µM (stock): 35%

## CCCCc1ccc2nc(OCC(=O)O)cc(-c3ccccc3)c2c1 [2-[(6-butyl-4-phenylquinolin-2-yl)oxy]acetic acid]
[1]
  fold induction at 10 µM: 1.12
[2]
  inhibition at 1085 µM (stock): 11.3%

## CN(CC(=O)O)c1cc(-c2ccccc2)c2cc(Cl)ccc2n1 [2-[(6-chloro-4-phenylquinolin-2-yl)(methyl)amino]acetic acid]
[1]
  fold induction at 10 µM: 1.14
[2]
  inhibition at 1085 µM (stock): 99.7%

## CC(C(=O)O)N(C)c1cc(-c2ccccc2)c2cc(Cl)ccc2n1 (stereo not shown) [2-[(6-chloro-4-phenylquinolin-2-yl)(methyl)amino]propanoic acid]
[1]
  fold induction at 10 µM: 1.18
[2]
  inhibition at 1085 µM (stock): 97.4%

## O=C(O)COc1cc(-c2ccccc2)c2cc(Cl)ccc2n1 [2-[(6-chloro-4-phenylquinolin-2-yl)oxy]acetic acid]
[1]
  fold induction at 10 µM: 1.1
[2]
  inhibition at 1085 µM (stock): 34.4%

## CCc1ccc2nc(N(C)CC(=O)O)cc(-c3ccccc3)c2c1 [2-[(6-ethyl-4-phenylquinolin-2-yl)(methyl)amino]acetic acid]
[1]
  fold induction at 10 µM: 1.12
[2]
  inhibition at 1085 µM (stock): 103%

## CCc1ccc2nc(OCC(=O)O)cc(-c3ccccc3)c2c1 [2-[(6-ethyl-4-phenylquinolin-2-yl)oxy]acetic acid]
[1]
  fold induction at 10 µM: 0.97
[2]
  inhibition at 1085 µM (stock): 31.9%

## CCCCCCC1CCc2nc(N(C)CC(=O)O)cc(-c3ccccc3)c2C1 (stereo not shown) [2-[(6-hexyl-4-phenyl-5,6,7,8-tetrahydroquinolin-2-yl)(methyl)amino]acetic acid]
[1]
  fold induction at 10 µM: 1.34
[2]
  inhibition at 1085 µM (stock): 64.5%

## CCCCCCc1ccc2nc(N(C)CC(=O)O)cc(-c3ccccc3)c2c1 [2-[(6-hexyl-4-phenylquinolin-2-yl)(methyl)amino]acetic acid]
[1]
  fold induction at 10 µM: 1.41
[2]
  inhibition at 1085 µM (stock): 88.2%

## CCCCCCc1ccc2nc(N(C)CC(=O)O)ccc2c1 [2-[(6-hexylquinolin-2-yl)(methyl)amino]acetic acid]
[1]
  fold induction at 10 µM: 1.15
[2]
  inhibition at 1085 µM (stock): 53.3%
